From US20260042731A1, “(2,4-DICHLOROPHENOXY)ACETIC ACID ANALOGS” (CORTEVA AGRISCIENCE LLC, priority 2022, published 2026)
Read-outs that look alike come from different tables or passages of the source.

How the values were obtained:
[1] = test system: Ambrosia artemisiifolia (AMBEL), common ragweed; assay: Postemergence herbicide evaluation, growth of Ambrosia artemisiifolia (AMBEL); assay type: in vivo; conditions: Ambrosia artemisiifolia, post-emergence, percent reduction in plant size vs untreated control, read-out: AVE. AMBEL; for pest or weed control at 280 g/ha: 280 g ae/ha; for pest or weed control at 560 g/ha: 560 g ae/ha
[2] = test system: Chenopodium album (CHEAL), common lambsquarters; assay: Postemergence herbicide evaluation, growth of Chenopodium album (CHEAL); assay type: in vivo; conditions: Chenopodium album, post-emergence, percent reduction in plant size vs untreated control, read-out: Ave. CHEAL; for pest or weed control at 280 g/ha: 280 g ae/ha; for pest or weed control at 560 g/ha: 560 g ae/ha
[3] = test system: weeds ABUTH, AMATA, AMBEL, CHEAL, ERICA; assay: Postemergence herbicide evaluation, overall average % weed control across ABUTH, AMATA, AMBEL, CHEAL and ERICA; assay type: in vivo; conditions: post-emergence, average over five weeds, read-out: Overall Ave % Weed Control; for pest or weed control at 280 g/ha: 280 g ae/ha; for pest or weed control at 560 g/ha: 560 g ae/ha
[4] = test system: Amaranthus rudis (AMATA), tall water hemp; assay: Postemergence herbicide evaluation, growth of Amaranthus rudis (AMATA); assay type: in vivo; conditions: Amaranthus tuberculatus, post-emergence, percent reduction in plant size vs untreated control, read-out: Ave. AMATA; for pest or weed control at 280 g/ha: 280 g ae/ha; for pest or weed control at 560 g/ha: 560 g ae/ha
[5] = Volatility of compounds measured by thermogravimetric analysis (TGA); assay type: physicochemical
[6] = test system: Abutilon theophrasti (ABUTH), velvetleaf; assay: Postemergence herbicide evaluation, growth of Abutilon theophrasti (ABUTH); assay type: in vivo; conditions: Abutilon theophrasti, post-emergence, percent reduction in plant size vs untreated control, read-out: AVE. ABUTH; for pest or weed control at 280 g/ha: 280 g ae/ha; for pest or weed control at 560 g/ha: 560 g ae/ha
[7] = test system: glyphosate resistant Conyza canadensis (L.) (ERICA), horseweed; assay: Postemergence herbicide evaluation, growth of Conyza canadensis (ERICA); assay type: in vivo; conditions: Erigeron canadensis, post-emergence, percent reduction in plant size vs untreated control, read-out: Ave. ERICA; for pest or weed control at 280 g/ha: 280 g ae/ha; for pest or weed control at 560 g/ha: 560 g ae/ha

SMILES | pest or weed control at 280 g/ha ([1]; 168 h, 7 DAA) [%] | pest or weed control at 280 g/ha ([1]; 336 h, 14 DAA) [%] | pest or weed control at 560 g/ha ([1]; 336 h, 14 DAA) [%] | pest or weed control at 280 g/ha ([1]; 504 h, 21 DAA) [%] | pest or weed control at 560 g/ha ([1]; 504 h, 21 DAA) [%] | pest or weed control at 280 g/ha ([2]; 168 h, 7 DAA) [%] | pest or weed control at 280 g/ha ([2]; 336 h, 14 DAA) [%] | pest or weed control at 560 g/ha ([2]; 336 h, 14 DAA) [%] | pest or weed control at 280 g/ha ([2]; 504 h, 21 DAA) [%] | pest or weed control at 560 g/ha ([2]; 504 h, 21 DAA) [%] | pest or weed control at 280 g/ha ([3]; 168 h, 7 DAA) [%] | pest or weed control at 280 g/ha ([3]; 336 h, 14 DAA) [%] | pest or weed control at 560 g/ha ([3]; 336 h, 14 DAA) [%] | pest or weed control at 280 g/ha ([3]; 504 h, 21 DAA) [%] | pest or weed control at 560 g/ha ([3]; 504 h, 21 DAA) [%] | pest or weed control at 280 g/ha ([4]; 168 h, 7 DAA) [%] | pest or weed control at 280 g/ha ([4]; 336 h, 14 DAA) [%] | pest or weed control at 560 g/ha ([4]; 336 h, 14 DAA) [%] | pest or weed control at 280 g/ha ([4]; 504 h, 21 DAA) [%] | pest or weed control at 560 g/ha ([4]; 504 h, 21 DAA) [%] | other results
O=C(COc1ccc(Cl)cc1Cl)Oc1cccnc1 [Compound E9] | 80 | 90 | 97.5 | 100 | 100 | 75 | 96.5 | 99 | 90 | 93.5 | 74.5 | 89.2 | 96.4 | 94 | 97.4 | 77.5 | 85 | 87.5 | 92.5 | 94 | pest or weed control at 660 g/ha ([1]; 168 h, 660 g ae/ha, 7 DAA): 87.5%; pest or weed control at 660 g/ha ([2]; 168 h, 660 g ae/ha, 7 DAA): 80%; pest or weed control at 660 g/ha ([3]; 168 h, 660 g ae/ha, 7 DAA): 84%; pest or weed control at 660 g/ha ([4]; 168 h, 660 g ae/ha, 7 DAA): 92.5%; TGA Data (rate of weight loss, volatility) [5]: 0.6748 µg/min; pest or weed control at 280 g/ha ([6]; 168 h, 7 DAA): 57.5%; pest or weed control at 660 g/ha ([6]; 168 h, 660 g ae/ha, 7 DAA): 82.5%; pest or weed control at 280 g/ha ([6]; 336 h, 14 DAA): 75%; pest or weed control at 560 g/ha ([6]; 336 h, 14 DAA): 98%; pest or weed control at 280 g/ha ([6]; 504 h, 21 DAA): 88.5%; pest or weed control at 560 g/ha ([6]; 504 h, 21 DAA): 99.5%; pest or weed control at 280 g/ha ([7]; 168 h, 7 DAA): 82.5%; pest or weed control at 660 g/ha ([7]; 168 h, 660 g ae/ha, 7 DAA): 77.5%; pest or weed control at 280 g/ha ([7]; 336 h, 14 DAA): 99.5%; pest or weed control at 560 g/ha ([7]; 336 h, 14 DAA): 100%; pest or weed control at 280 g/ha ([7]; 504 h, 21 DAA): 99%; pest or weed control at 560 g/ha ([7]; 504 h, 21 DAA): 100%
O=C(COc1ccc(Cl)cc1Cl)Nc1ccnc(Cl)c1 [Compound D13] | 70 | 75 | 91 | 94 | 50 | 77.5 | 95 | 98 | 90 | 92.5 | 67 | 78.7 | 79.9 | 83.8 | 74.2 | 72.5 | 91 | 84 | 80 | 92 | pest or weed control at 560 g/ha ([1]; 168 h, 7 DAA): 75%; pest or weed control at 560 g/ha ([2]; 168 h, 7 DAA): 75%; pest or weed control at 560 g/ha ([3]; 168 h, 7 DAA): 68%; pest or weed control at 560 g/ha ([4]; 168 h, 7 DAA): 75%; TGA Data (rate of weight loss, volatility) [5]: 0.06009 µg/min; pest or weed control at 280 g/ha ([6]; 168 h, 7 DAA): 35%; pest or weed control at 560 g/ha ([6]; 168 h, 7 DAA): 32.5%; pest or weed control at 280 g/ha ([6]; 336 h, 14 DAA): 40%; pest or weed control at 560 g/ha ([6]; 336 h, 14 DAA): 35%; pest or weed control at 280 g/ha ([6]; 504 h, 21 DAA): 57.5%; pest or weed control at 560 g/ha ([6]; 504 h, 21 DAA): 37.5%; pest or weed control at 280 g/ha ([7]; 168 h, 7 DAA): 80%; pest or weed control at 560 g/ha ([7]; 168 h, 7 DAA): 82.5%; pest or weed control at 280 g/ha ([7]; 336 h, 14 DAA): 92.5%; pest or weed control at 560 g/ha ([7]; 336 h, 14 DAA): 91.5%; pest or weed control at 280 g/ha ([7]; 504 h, 21 DAA): 97.5%; pest or weed control at 560 g/ha ([7]; 504 h, 21 DAA): 99%
